Experimental data from article PMC8842277, “Highly Antiproliferative Latonduine and Indolo[2,3-c]quinoline Derivatives: Complex Formation with Copper(II) Markedly Changes the Kinase Inhibitory Profile” (Journal of Medicinal Chemistry, 2022).

Tests used:
[1] = test system: normal human embryonal lung fibroblast cells (MRC-5); experiment: MTT antiproliferative assay; assay type: cell-based; conditions: 72 h, read-out: IC50 MRC-5 benign, mean
Description: (§1) The in vitro antiproliferative activity of the compounds was tested in doxorubicin-sensitive Colo205 and multidrug-resistant Colo320 human colon adenocarcinoma cell lines as well as in normal human embryonal lung fibroblast cells (MRC-5) by MTT assay.
(§2) Human colonic adenocarcinoma cell lines Colo 205 doxorubicin-sensitive (ATCC-CCL-222) and Colo 320/MDR-LRP multidrug resistant over-expressing ABCB1 (MDR1)-LRP (ATCC-CCL-220.1) were purchased from LGC Promochem, Teddington, UK. The cells were cultured in an RPMI 1640 medium supplemented with 10% heat-inactivated fetal bovine serum, 2 mM L-glutamine, 1 mM Na-pyruvate, and 10 mM HEPES. The semi-adherent human colon cancer cells were detached with Trypsin-Versene (EDTA) solution for 5 min at 37 °C. An MRC-5 human embryonal lung fibroblast cell line (ATCC CCL-171) was purchased from LGC Promochem, Teddington, UK. The cells were cultured in Eagle’s minimal essential medium (EMEM, containing 4.5 g L^–1 glucose) supplemented with a non-essential amino acid mixture, a selection of vitamins, and 10% heat-inactivated fetal bovine serum. The HCT-116 colon carcinoma cells and isogenic p53-knock-out subline were a gift of Prof. Bert Vogelstein from The Johns Hopkins Oncology Center. Cells were cultured in McCoy’s 5A medium supplemented with 10% heat-inactivated fetal bovine serum and 4 mM L-glutamine. All cell lines were incubated at 37 °C, in a 5% CO2, 95% air atmosphere.
(§3) MRC-5 non-cancerous human embryonic lung fibroblast and human colonic adeno-carcinoma cell lines (doxorubicin-sensitive Colo 205 and multidrug resistant Colo 320 colonic adenocarcinoma cells) were used to determine the effect of compounds on cell growth. The effects of increasing concentrations of compounds on cell growth were tested in 96-well flat-bottomed microtiter plates. The compounds were dissolved in DMSO and stock solutions of 10 mM were prepared. These were further diluted in the appropriate cell culture medium by twofold serial dilution starting from 100 or 10 μM for the compounds. The adherent human embryonal lung fibroblast cells were cultured in 96-well flat-bottomed microtiter plates using EMEM supplemented with 10% heat-inactivated fetal bovine serum. The density of the cells was adjusted to 1 × 10^4 cells in 100 μL per well, the cells were seeded for 24 h at 37 °C, 5% CO2, then the medium was removed from the plates containing the cells, and the dilutions of compounds previously made in a separate plate were added to the cells in 200 μL. In the case of the colonic adenocarcinoma cells, the twofold serial dilutions of compounds were prepared in 100 μL of RPMI 1640, horizontally. The semi-adherent colonic adenocarcinoma cells were treated with Trypsin-Versene (EDTA) solution. They were adjusted to a density of 1 × 10^4 cells in 100 μL of RPMI 1640 medium and were added to each well, with the exception of the medium control wells. The final volume of the wells containing compounds and cells was 200 μL. The culture plates were incubated at 37 °C for 72 h; at the end of the incubation period, 20 μL of MTT (thiazolyl blue tetrazolium bromide, Sigma) solution (from a stock solution of 5 mg mL^–1) was added to each well. After incubation at 37 °C for 4 h, 100 μL of sodium dodecyl sulfate (SDS) (Sigma) solution (10% in 0.01 M HCI) was added to each well and the plates were further incubated at 37 °C overnight. Cell growth was determined by measuring the optical density (OD) at 540/630 nm with a Multiscan EX ELISA reader (Thermo Labsystems, Cheshire, WA, USA). […] Curves were fitted by GraphPad Prism software[57] using the sigmoidal dose–response model (comparing variable and fixed slopes). The IC50 values were obtained from at least three independent experiments. Tests in adherent HCT-116 colon carcinoma cells and an isogenic p53-knock-out subline thereof were performed in a similar manner, with 1.5 × 10^3 cells seeded in 100 μL of McCoy’s 5A medium (Sigma-Aldrich) per well. […]

[2] = test system: doxorubicin-sensitive Colo205 human colon adenocarcinoma cells; experiment: MTT antiproliferative assay; assay type: cell-based; conditions: for selectivity factor (SF) Colo205: IC50 MRC-5/IC50 Colo205; for IC50: MTT, 72 h
Description: as §1, §2, §3

[3] = test system: multidrug-resistant Colo320 human colon adenocarcinoma cells; experiment: MTT antiproliferative assay; assay type: cell-based; conditions: for selectivity factor (SF) Colo320: IC50 MRC-5/IC50 Colo320; for IC50: MTT, 72 h
Description: as §1, §2, §3

[4] = molecular target: SGK-1 (Homo sapiens, UniProt O00141); experiment: Kinase panel screen and IC50; assay type: biochemical
Text: (§4) Figure 7 (see also Table S4) summarizes the results of this assay as a histogram plotting the percentage of the remaining enzyme activity (x-axis) as a function of added lead compound (HL^8: blue trace, 8: red trace) for each of the 50 enzymes assayed (y-axis). […] Thus, the coordination to copper(II) completely changes the kinase inhibition profile of HL^8.
(§5) Figure 7 Screening of HL^8 and 8 against 50 enzymes: histogram with % remaining activity on the x-axis plotted against the compound identifier (blue trace: HL^8 and red trace: 8) and enzyme identifier on the […]. The screen was carried out at a compound concentration of 10 μM, an enzyme concentration of 50 nM, and an ATP concentration of 100 μM.
(§6) Both compounds were screened against the respective enzymes, and IC50 values were determined.
(§7) All kinase assays were carried out using Multidrop 384’s at room temperature in a total assay volume of 25.5 μL. To plates containing 0.5 μL of HL^8 and 8, DMSO control or acid blank […], 15 μL of an enzyme mix containing enzyme […], and excess peptide/protein substrate in buffer was added. Compounds were pre-incubated in the presence of the enzyme and peptide/protein substrate for 5 min before initiation of the reaction by addition of 10 μL of ATP (final concentration selected for each kinase at 5, 20, or 50 μM). Assays were carried out for 30 min at room temperature before termination by the addition of 5 μL of orthophosphoric acid. The assay plates were then harvested onto P81 Unifilter Plates by a PerkinElmer Harvester and air dried. The dry Unifilter plates were then sealed on the addition of MicroScint O and were counted in PerkinElmer Topcount scintillation counters.
(§8) IC50 values were determined by the International Centre for Kinase Profiling at the University of Dundee according to standard protocols published elsewhere.[109],[110]

[5] = molecular target: MSK1 (Homo sapiens, UniProt O75582); experiment: Kinase panel screen and IC50; assay type: biochemical
Text: as §4, §5, §6, §7, §8

[6] = molecular target: PKA (Homo sapiens, UniProt P17612); experiment: Kinase panel screen and IC50; assay type: biochemical
Text: as §4, §5, §6, §7, §8

[7] = molecular target: CaMK-1 (Homo sapiens, UniProt Q14012); experiment: Kinase panel screen and IC50; assay type: biochemical
Text: as §4, §5, §6, §7, §8

[8] = molecular target: PIM1 (Homo sapiens, UniProt P11309); experiment: Kinase panel screen and IC50; assay type: biochemical
Text: as §4, §5, §6, §7, §8

MSK1, sequence (O75582 whole entry): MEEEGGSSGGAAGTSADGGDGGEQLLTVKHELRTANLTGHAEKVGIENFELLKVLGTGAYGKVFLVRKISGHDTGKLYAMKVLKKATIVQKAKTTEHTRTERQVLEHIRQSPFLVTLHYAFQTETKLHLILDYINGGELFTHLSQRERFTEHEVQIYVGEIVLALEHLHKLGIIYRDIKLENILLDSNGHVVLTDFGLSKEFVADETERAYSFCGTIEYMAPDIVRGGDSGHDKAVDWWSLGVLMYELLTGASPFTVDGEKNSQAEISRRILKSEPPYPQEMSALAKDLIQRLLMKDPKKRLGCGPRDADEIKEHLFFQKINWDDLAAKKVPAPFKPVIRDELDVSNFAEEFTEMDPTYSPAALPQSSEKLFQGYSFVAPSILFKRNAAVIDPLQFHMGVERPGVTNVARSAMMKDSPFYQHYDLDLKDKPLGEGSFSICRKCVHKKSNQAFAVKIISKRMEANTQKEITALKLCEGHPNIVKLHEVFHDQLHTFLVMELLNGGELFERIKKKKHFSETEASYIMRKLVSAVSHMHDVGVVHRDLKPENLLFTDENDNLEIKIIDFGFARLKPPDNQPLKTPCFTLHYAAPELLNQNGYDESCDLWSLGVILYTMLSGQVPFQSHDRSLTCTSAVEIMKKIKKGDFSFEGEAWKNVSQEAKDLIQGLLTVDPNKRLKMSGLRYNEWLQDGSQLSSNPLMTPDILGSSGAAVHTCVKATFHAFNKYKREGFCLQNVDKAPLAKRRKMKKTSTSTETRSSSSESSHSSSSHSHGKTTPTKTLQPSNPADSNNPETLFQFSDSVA
PIM1, sequence (P11309 whole entry): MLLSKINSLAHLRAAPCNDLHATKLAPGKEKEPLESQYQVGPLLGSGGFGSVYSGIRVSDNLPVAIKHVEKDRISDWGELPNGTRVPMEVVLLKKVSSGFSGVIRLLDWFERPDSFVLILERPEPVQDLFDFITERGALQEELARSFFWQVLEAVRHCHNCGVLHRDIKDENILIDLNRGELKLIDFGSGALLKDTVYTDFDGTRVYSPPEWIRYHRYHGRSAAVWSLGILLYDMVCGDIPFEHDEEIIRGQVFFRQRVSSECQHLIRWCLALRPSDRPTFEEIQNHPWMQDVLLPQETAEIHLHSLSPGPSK
SGK-1, sequence (O00141 whole entry): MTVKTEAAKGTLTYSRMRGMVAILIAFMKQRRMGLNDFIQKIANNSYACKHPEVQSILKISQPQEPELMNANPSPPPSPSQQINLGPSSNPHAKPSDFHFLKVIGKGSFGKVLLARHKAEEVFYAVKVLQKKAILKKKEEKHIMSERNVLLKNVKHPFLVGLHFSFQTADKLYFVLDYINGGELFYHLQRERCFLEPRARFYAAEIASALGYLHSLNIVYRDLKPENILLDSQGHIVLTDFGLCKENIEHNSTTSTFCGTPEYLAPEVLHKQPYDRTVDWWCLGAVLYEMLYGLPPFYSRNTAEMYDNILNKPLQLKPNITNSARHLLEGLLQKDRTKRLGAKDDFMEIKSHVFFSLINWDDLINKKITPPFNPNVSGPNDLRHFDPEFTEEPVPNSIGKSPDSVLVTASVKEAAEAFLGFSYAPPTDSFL

Compound	IC50 [1] [nM]	selectivity factor (SF) Colo205 [2]	IC50 [2] [nM]	selectivity factor (SF) Colo320 [3]	IC50 [3] [nM]	% remaining activity ([4]; SGK-1, 10 µM compound) [%]	IC50 ([4]; read-out: IC50 against SGK-1) [nM]	% remaining activity ([5]; MSK1, 10 µM compound) [%]	IC50 ([5]; read-out: IC50 against MSK1) [nM]	% remaining activity ([6]; PKA, 10 µM compound) [%]	IC50 ([6]; read-out: IC50 against PKA) [nM]	% remaining activity ([7]; CaMK-1, 10 µM compound) [%]	IC50 ([7]; read-out: IC50 against CaMK-1) [nM]	IC50 against PIM-1 [8]	% remaining activity ([8]; PIM1, 10 µM compound) [%]
CC(=NNC1=NCc2ccccc2-c2c1[nH]c1ccc(Br)cc21)c1ccc(CN2CCOCC2)cn1.[Cl][Cu][Cl] [compound 4, CuCl2(HL^4)·0.5H2O]	397	1.80	220	3.64	109	–	–	–	–	–	–	–	–	–	–
CC(=NNc1nc2ccccc2c2c1[nH]c1ccc(Br)cc12)c1ccc(CN2CCOCC2)cn1.[Cl][Cu][Cl] [compound 8, CuCl2(HL^8)·H2O]	165	4.38	38	0.30	547	5	8450	17	2970	10	6690	9	750	did not register binding	72
